The source of these data is ChEMBL document CHEMBL3351363 (J Med Chem, 2014).

pEC50, pIC50, pKi: −log10 of the molar value.

For assay [1], the target named is Muscarinic acetylcholine receptor M3 (Homo sapiens, UniProt P20309). Briefly: Displacement of [3H]NMS from human M3 receptor expressed in CHO cells by microplate scintillation counting based radioligand binding assay. It is filed as cell-based. Background: Displacement assays read how much labelled ligand stays bound in the presence of the test substance.
Muscarinic acetylcholine receptor M3, sequence (P20309 whole entry): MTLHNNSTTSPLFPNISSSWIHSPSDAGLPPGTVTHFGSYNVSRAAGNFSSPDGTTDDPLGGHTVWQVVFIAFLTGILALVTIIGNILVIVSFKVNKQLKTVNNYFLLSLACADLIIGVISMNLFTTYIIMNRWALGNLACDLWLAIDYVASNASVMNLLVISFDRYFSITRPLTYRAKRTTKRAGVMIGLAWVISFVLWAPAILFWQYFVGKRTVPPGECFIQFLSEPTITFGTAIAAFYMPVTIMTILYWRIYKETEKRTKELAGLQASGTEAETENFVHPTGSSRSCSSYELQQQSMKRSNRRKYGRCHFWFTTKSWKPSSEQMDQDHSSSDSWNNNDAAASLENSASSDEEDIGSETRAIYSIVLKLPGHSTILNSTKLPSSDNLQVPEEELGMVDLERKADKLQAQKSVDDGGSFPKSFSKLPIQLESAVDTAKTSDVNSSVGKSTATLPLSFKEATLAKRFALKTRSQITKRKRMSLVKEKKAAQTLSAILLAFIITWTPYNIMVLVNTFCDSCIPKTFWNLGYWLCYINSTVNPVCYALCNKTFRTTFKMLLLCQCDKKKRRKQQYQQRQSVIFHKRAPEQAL
The target in assay [2] is T1, Muscarinic acetylcholine receptor M2 (Homo sapiens, UniProt P08172).
T1 sequence (P08172 whole entry): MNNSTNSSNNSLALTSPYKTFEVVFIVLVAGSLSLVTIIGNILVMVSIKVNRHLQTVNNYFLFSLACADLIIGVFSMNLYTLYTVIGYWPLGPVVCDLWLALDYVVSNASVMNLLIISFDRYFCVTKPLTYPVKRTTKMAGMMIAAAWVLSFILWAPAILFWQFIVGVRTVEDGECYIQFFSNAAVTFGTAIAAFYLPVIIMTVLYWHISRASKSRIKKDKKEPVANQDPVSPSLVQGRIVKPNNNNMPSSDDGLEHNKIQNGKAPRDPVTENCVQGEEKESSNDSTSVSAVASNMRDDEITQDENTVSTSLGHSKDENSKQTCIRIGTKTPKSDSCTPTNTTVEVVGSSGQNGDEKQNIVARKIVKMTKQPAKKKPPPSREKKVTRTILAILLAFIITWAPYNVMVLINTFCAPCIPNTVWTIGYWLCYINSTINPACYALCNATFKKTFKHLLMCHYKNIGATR
Briefly: Displacement of [3H]NMS from human M2 receptor expressed in CHO cells by microplate scintillation counting based radioligand binding assay. It is filed as cell-based.

For assay [3], the target named is T2, Muscarinic acetylcholine receptor M1 (Homo sapiens, UniProt P11229).
T2 sequence (P11229 whole entry): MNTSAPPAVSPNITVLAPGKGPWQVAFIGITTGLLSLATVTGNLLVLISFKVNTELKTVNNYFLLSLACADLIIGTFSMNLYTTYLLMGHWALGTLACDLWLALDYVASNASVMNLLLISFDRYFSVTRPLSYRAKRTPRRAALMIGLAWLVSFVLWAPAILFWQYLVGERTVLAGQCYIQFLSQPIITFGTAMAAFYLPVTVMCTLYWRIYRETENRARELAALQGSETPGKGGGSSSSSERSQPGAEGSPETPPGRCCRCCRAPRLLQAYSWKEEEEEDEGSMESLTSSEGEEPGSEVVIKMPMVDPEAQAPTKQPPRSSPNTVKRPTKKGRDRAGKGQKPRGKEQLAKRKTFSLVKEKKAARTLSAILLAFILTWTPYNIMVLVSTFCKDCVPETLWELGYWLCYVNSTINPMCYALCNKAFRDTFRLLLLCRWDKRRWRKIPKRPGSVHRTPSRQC
Briefly: Displacement of [3H]NMS from human M1 receptor expressed in CHO cells by microplate scintillation counting based radioligand binding assay. It is filed as cell-based.

Assay [4] addresses T3, Muscarinic acetylcholine receptor M5 (Homo sapiens, UniProt P08912).
T3 sequence (P08912 whole entry): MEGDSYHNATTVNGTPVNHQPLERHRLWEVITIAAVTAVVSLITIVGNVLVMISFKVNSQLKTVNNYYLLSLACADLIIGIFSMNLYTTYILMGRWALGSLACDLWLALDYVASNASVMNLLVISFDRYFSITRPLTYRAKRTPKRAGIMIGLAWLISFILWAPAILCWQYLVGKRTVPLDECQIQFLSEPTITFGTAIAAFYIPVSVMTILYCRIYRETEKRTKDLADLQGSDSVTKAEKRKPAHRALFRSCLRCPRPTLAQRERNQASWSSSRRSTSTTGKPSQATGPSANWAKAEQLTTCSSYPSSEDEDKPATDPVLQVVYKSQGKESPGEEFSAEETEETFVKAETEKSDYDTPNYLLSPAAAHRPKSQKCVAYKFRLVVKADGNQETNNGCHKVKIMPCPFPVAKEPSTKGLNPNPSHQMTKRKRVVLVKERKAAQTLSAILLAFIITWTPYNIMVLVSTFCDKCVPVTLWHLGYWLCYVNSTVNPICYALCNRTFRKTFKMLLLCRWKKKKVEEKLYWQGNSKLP
Briefly: Displacement of [3H]NMS from human M5 receptor expressed in CHO cells by microplate scintillation counting based radioligand binding assay. It is filed as cell-based.

Assay [5] concerns the target T4, Muscarinic acetylcholine receptor M4 (Homo sapiens, UniProt P08173).
T4 sequence (P08173 whole entry): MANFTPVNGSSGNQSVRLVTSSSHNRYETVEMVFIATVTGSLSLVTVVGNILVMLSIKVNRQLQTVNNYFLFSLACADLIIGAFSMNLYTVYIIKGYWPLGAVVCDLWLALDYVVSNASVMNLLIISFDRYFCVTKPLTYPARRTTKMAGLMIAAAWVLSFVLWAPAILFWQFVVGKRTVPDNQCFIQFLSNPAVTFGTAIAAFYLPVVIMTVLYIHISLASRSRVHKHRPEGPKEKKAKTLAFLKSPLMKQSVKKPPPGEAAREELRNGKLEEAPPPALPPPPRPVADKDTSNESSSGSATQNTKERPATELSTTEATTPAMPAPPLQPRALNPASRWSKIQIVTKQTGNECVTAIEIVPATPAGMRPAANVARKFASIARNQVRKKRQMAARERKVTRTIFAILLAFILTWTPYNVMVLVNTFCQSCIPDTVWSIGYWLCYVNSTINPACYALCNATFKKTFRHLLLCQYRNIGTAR
Briefly: Displacement of [3H]NMS from human M4 receptor expressed in CHO cells by microplate scintillation counting based radioligand binding assay. The format is cell-based.

In assay [6] the target is T5, Muscarinic acetylcholine receptor M1 (Homo sapiens) (UniProt P11229).
T5 sequence (whole entry): T2 sequence (P11229 whole entry)
Briefly: Agonist activity at human M1 receptor expressed in HEK293T cells by BRET based Gq protein engagement assay relative carbachol. The format is cell-based. Particulars: HEK-293T. On the technique in general: BRET reads energy transfer from a luciferase to a nearby fluorophore.

The target of assay [7] is T4, Muscarinic acetylcholine receptor M4. Briefly: Antagonist activity at human M4 receptor expressed in HEK293T cells assessed as inhibition of carbachol-induced response by beta-arrestin engagement assay. It is filed as cell-based, HEK-293T.
Assay [8] addresses T2, Muscarinic acetylcholine receptor M1. It is filed as cell-based, HEK-293T.
Assay [9] shares this target. The format is cell-based, HEK-293T. The source holds these as a separate data set.
Assay [10] has as its target T6, Muscarinic acetylcholine receptor M4 (Homo sapiens) (UniProt P08173).
T6 sequence (whole entry): T4 sequence (P08173 whole entry)
Briefly: Agonist activity at human M4 receptor expressed in HEK293T cells by BRET based Gi protein activation assay relative to carbachol. Particulars: HEK-293T.

Assay [11] addresses T2, Muscarinic acetylcholine receptor M1. Briefly: Agonist activity at human M1 receptor expressed in HEK293T cells by BRET based Gq protein engagement assay.
The target in assay [12] is T6, Muscarinic acetylcholine receptor M4 (Homo sapiens). Briefly: Antagonist activity at human M4 receptor expressed in HEK293T cells assessed as inhibition of carbachol-induced response by BRET based Gq protein engagement assay relative to untreated control. It is filed as cell-based. Particulars: HEK-293T.
The target of assay [13] is T5, Muscarinic acetylcholine receptor M1 (Homo sapiens). Briefly: Agonist activity at human M1 receptor expressed in HEK293T cells by BRET based Gq protein activation assay relative to carbachol. The format is cell-based. Particulars: HEK-293T.
Assay [14] concerns the target T4, Muscarinic acetylcholine receptor M4. Briefly: Agonist activity at human M4 receptor expressed in HEK293T cells by BRET based Gq protein activation assay.
Assay [15] has the same target. Briefly: Antagonist activity at human M4 receptor expressed in HEK293T cells assessed as inhibition of carbachol-induced response by BRET based Gq protein engagement assay. It is filed as cell-based, HEK-293T.
The target in assay [16] is T2, Muscarinic acetylcholine receptor M1.
Assay [17] concerns the target T4, Muscarinic acetylcholine receptor M4.
Assay [18] concerns the target T2, Muscarinic acetylcholine receptor M1. Briefly: Agonist activity at human M1 receptor expressed in HEK293T cells by BRET based Gq protein activation assay. The format is cell-based, HEK-293T.
In assay [19] the target is T6, Muscarinic acetylcholine receptor M4 (Homo sapiens). Briefly: Antagonist activity at human M4 receptor expressed in HEK293T cells assessed as inhibition of carbachol-induced response by beta-arrestin engagement assay relative to untreated control. The format is cell-based. Particulars: HEK-293T.
Assay [20] has the same target. Briefly: Antagonist activity at human M4 receptor expressed in HEK293T cells assessed as inhibition of carbachol-induced response by BRET based Gi protein activation assay relative to untreated control. Particulars: HEK-293T.
Assay [21] deals with T2, Muscarinic acetylcholine receptor M1. Briefly: Agonist activity at human M1 receptor expressed in HEK293T cells by BRET based beta-arrestin engagement assay.
Assay [22] concerns the target T5, Muscarinic acetylcholine receptor M1 (Homo sapiens). Briefly: Agonist activity at human M1 receptor expressed in HEK293T cells by BRET based beta-arrestin engagement assay relative to carbachol. The format is cell-based. Particulars: HEK-293T.
In assay [23] the target is T6, Muscarinic acetylcholine receptor M4 (Homo sapiens). Briefly: Agonist activity at human M4 receptor expressed in HEK293T cells by BRET based Gq protein engagement assay relative to carbachol. The format is cell-based. Particulars: HEK-293T.

In the case of `CN1CCC=C(c2nsnc2OCCCCCCCCCOc2nsnc2C2=CCCN(C)C2)C1`, the pKi (in general, −log10 of the Ki, conventionally taken in molar units) is 8.54 in assay [1]; 8.50 in assay [2]; 8.78 in assay [3]; 8.40 in [4]; 9.11 in [5].
For the compound `O=C1CCc2ccccc2N1CCCN1CCC(CCCCCCCCCCCCCO)CC1`, the pKi is 6.47 in assay [1]; 6.32 in assay [2]; 6.73 in [3]; 6.47 in [4]; 7.02 in assay [5].
Turning to `O=C1CCc2ccccc2N1CCCN1CCC(CCCCCCCCCC2CCN(CCCN3C(=O)CCc4ccccc43)CC2)CC1`, the pKi in [1] is 7.24; in assay [2], 7.10; in [3], 7.53; in assay [4], 7.31; in [5] it was 7.49.
`O=C1CCc2ccccc2N1CCCN1CCC(CCCCCO)CC1`: the pKi in assay [1] is 5.72; in assay [2] it was 6.22; in assay [3] it was 6.33; in assay [4] it was 5.34; in assay [5], 6.35. Besides, the Emax (in general, the maximal effect, on the per cent scale that the assay sets) in assay [6] amounted to 58%; in [10], 20%; in [13], 53%. Moreover, the pIC50 (commonly the IC50 on a negative log10 scale, so that one unit is a factor of ten) was 5.79 in [7]; 5.00 in assay [8]; 4.58 in assay [9]; 4.91 in [15]; 7.54 in [16]; 5.48 in [17]. The pEC50 (as a rule, −log10 of the EC50, conventionally taken in molar units) in assay [11] is 6.95; in [14], 5.70; in [18], 6.69. Moreover, the Imax in assay [12] was 72%; in assay [19], less than 100%; in assay [20] it was 38%.
With `CN1CCC=C(c2nsnc2OCCCCCCCCCC2CCN(CCCN3C(=O)CCc4ccccc43)CC2)C1`, the pKi in assay [1] is 8.96; in assay [2], 8.77; in assay [3] it was 8.99; in [4], 8.53; in [5], 8.97. In addition, the Emax is less than 0% in [6]; more than 100% in [10]; 31% in [13]; 81% in assay [22]; less than 0% in assay [23]. The pIC50 in assay [7] is 4.02; in assay [8] it was 3.83; in [9] it was 4.85; in [15] it was 5.61. For the same compound, the Imax in [12] was 63%; in assay [19], less than 100%. In addition, the pEC50 in [14] is 4.18; in assay [21], 4.21; in assay [18], 6.06.
`O=C1CCc2ccccc2N1CCCN1CCC(CCCO)CC1`: the pKi in [1] was 4.93; in assay [2], 5.49; in assay [3], 5.60; in [4], 4.84; in [5], 6.23.
Turning to `CN1[C@@H]2C[C@@H](OC(=O)[C@H](CO)c3ccccc3)C[C@H]1[C@@H]1O[C@@H]12`, the Imax is less than 100% in assay [12], 77% in assay [19] and less than 100% in assay [20].
Consider `CN1CCC=C(c2nsnc2OCCCC2CCN(CCCN3C(=O)CCc4ccccc43)CC2)C1`, for which the pKi in assay [1] is 7.03; in assay [2], 7.18; in assay [3] it was 7.11; in [4], 6.99; in [5], 7.58.
Take `CN1CCC=C(c2nsnc2OCCCCCCCCCCCCCC2CCN(CCCN3C(=O)CCc4ccccc43)CC2)C1`: the pKi is 7.35 in [1]; 7.07 in assay [2]; 7.35 in assay [3]; 7.51 in assay [4]; 7.84 in assay [5].
For the compound `CN1CCN(CC(=O)N2c3ccccc3C(=O)Nc3cccnc32)CC1`, the Imax in [12] is less than 100%; in assay [19], 67%; in assay [20], less than 100%.
For `O=C1CCc2ccccc2N1CCCN1CCC(CCCCCCCCCO)CC1`, the pKi in assay [1] is 6.70; in assay [2], 6.67; in assay [3] it was 6.55; in assay [4], 6.07; in assay [5], 6.81. Moreover, the Emax in [6] was less than 0%; in assay [10], less than 0%; in [13] it was 22%; in assay [22], 50%; in [23], less than 0%. Further, the pIC50 was 6.09 in assay [7]; 4.71 in assay [8]; 5.00 in assay [9]; 6.23 in [15]; 6.31 in assay [16]; 5.44 in [17]. In addition, the Imax is 92% in [12], 90% in [19] and less than 100% in assay [20]. Also, the values for the pEC50 in [21] and in assay [18] were 3.61 and 6.53, respectively.
Take `O=C1CCc2ccccc2N1CCCN1CCC(CCCCCCCCCCCO)CC1`: the pKi was 6.24 in assay [1]; 6.38 in assay [2]; 6.91 in assay [3]; 6.46 in assay [4]; 6.95 in [5].
In the same order, the values of `CN1CCC=C(c2nsnc2OCCCCCCCCCCCC2CCN(CCCN3C(=O)CCc4ccccc43)CC2)C1` are 8.00, 7.05, 7.96, 8.06 and 8.18.
